Measured values published in patent US20250034165A1, “COMPOUND CONTAINING CYCLOALKYL OR HALOALKYL” (CHIA TAI TIANQING PHARMACEUTICAL GROUP CO., LTD., priority 2021, published 2025).

Tests used:
[1] = In vitro stability in liver microsomes; type: in vitro ADME; details: Human liver microsome
Experimental: 300 μL of the final incubation system contains 30 μL of liver microsomes (protein concentration: 0.15 mg/mL), 30 μL of NADPH+MgCl2, 3 μL of the test compound (in acetonitrile), and 237 μL of PBS buffer (pH 7.4). The proportion of the organic solvent (acetonitrile) was 1%. Samples were prepared in duplicate of 0.3 mL for each species (e.g., human or mouse liver microsomes). Tubes each containing 270 μL of a mixed solution of substrate and enzyme […] were pre-incubated at 37° C. for 5 min. 30 μL of NADPH+MgCl2 was added and the mixture was mixed. 50 μL of the mixture was taken at 0 min, 15 min, 30 min, and 60 min, and 300 μL of glacial acetonitrile containing an internal standard was added to terminate the reaction.
50 μL of the incubated sample was added with 300 μL of glacial acetonitrile containing an internal standard (20 ng/mL diazepam) for precipitation. The mixture was vortexed for 5 min, and centrifuged (12,000 rpm, 4° C.) for 10 min. 75 μL of supernatant was taken and diluted with 75 μL of ultrapure water. After being homogeneously mixed, 0.5 μL of the resulting sample was injected for analysis.

[2] = system: BAF3-EGFR (L858R/T790M/C797S) cells; experiment: Inhibition of proliferation of BAF3-EGFR (L858R/T790M/C797S) cells, CCK-8; type: cell-based; details: Ba/F3 EGFR, 72 h, read-out: BAF3(EGFR T790M L858R C797S) cell inhibitory activity IC50
In short: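 BaF3 EGFR L858R/T790M/C797S cells seeded at 1.5×10^5 cells/mL in RPMI + 10% FBS, 37 °C, compound added after overnight, duplicates. Viability by CCK-8; % inhibition vs untreated and blank, IC50 by four-parameter fit.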

[3] = system: PC-9 EGFR-Del19-T790M-C797S cells; experiment: Inhibition of proliferation of PC-9-EGFR (Del19 T790M C797S) cells, CCK-8; type: cell-based; details: 72 h, read-out: PC-9-EGFR (Del19 T790M C797S) cell inhibitory activity IC50
In short: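 Cells seeded at 2×10^4 cells/mL were treated 72 h with compound at 1000 nM-0.06 nM final, in replicate wells. CCK-8 absorbance at 450 nm after 2 h gave inhibition rate relative to negative control and blank. IC50 from four-parameter fit against log concentration.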

[4] = target: EGFR (d746-750 (d19)/T790M) (Homo sapiens (Human), UniProt P00533, DEL746-750/T790M); experiment: Inhibitory activity for EGFR (d746-750 (d19)/T790M) kinase; type: biochemical; details: ATP 5 μM
EGFR (d746-750 (d19)/T790M), sequence (P00533 other isoform, or with tags, fused parts or gaps T790M/del 1-668/del 746-750 limits assumed): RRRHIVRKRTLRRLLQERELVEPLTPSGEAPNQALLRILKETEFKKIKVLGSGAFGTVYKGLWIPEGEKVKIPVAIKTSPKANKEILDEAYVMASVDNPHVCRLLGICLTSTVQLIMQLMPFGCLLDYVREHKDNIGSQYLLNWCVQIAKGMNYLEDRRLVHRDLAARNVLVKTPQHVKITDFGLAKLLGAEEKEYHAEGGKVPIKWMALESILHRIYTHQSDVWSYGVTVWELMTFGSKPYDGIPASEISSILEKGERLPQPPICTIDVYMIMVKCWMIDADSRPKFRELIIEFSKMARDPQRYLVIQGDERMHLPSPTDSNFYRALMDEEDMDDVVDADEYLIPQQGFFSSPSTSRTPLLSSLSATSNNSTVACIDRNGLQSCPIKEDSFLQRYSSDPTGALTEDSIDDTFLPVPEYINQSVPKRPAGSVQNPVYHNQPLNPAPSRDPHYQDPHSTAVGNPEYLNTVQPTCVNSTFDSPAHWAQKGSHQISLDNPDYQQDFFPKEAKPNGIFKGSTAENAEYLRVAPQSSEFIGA
In short: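 Recombinant EGFR d746-750/T790M (0.003 ng/μL final) preincubated 30 min with compound (10 to 0.0024 nM, 4-fold steps), then 5 μM ATP and 0.1 μM ULight-poly GT added for 2 h at room temperature. EDTA stop, Eu-anti-phosphotyrosine TR-FRET read (665 nm); IC50 by four-parameter fit.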

[5] = target: EGFR (d746-750/T790M/C797S) (Homo sapiens (Human), UniProt P00533, C797S/DEL746-750/T790M); experiment: Inhibitory activity for EGFR (d746-750/T790M/C797S) kinase; type: biochemical; details: ATP 5 μM; read-out: EGFR(d19/T790M/C797S) (IC50)
EGFR (d746-750/T790M/C797S), sequence (P00533 other isoform, or with tags, fused parts or gaps T790M/C797S/del 1-694/del 746-750 limits assumed): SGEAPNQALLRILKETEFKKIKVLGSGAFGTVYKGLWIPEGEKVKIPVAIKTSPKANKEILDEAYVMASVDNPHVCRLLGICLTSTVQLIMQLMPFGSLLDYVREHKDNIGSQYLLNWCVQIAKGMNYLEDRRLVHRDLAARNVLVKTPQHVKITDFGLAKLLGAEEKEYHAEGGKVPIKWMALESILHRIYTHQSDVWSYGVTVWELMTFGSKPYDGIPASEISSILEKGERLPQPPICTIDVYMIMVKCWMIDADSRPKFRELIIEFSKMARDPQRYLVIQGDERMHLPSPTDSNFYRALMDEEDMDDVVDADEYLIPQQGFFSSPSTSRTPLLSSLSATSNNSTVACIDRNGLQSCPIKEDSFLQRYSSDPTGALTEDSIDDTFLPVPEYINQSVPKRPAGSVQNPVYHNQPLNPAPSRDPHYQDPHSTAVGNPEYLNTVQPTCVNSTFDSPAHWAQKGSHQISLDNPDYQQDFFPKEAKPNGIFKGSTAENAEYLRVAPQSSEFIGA
In short: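 EGFR d746-750/T790M/C797S (0.03 ng/μL final) preincubated 30 min with compound (10 nM–0.0024 nM, 4-fold, 7 points). Reaction with 5 μM ATP and 0.1 μM ULight-poly GT, 2 h at room temperature; EDTA stop, Eu-anti-phosphotyrosine TR-FRET read at 665 nm, IC50 by four-parameter fit.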

[6] = system: BAF3-EGFR (del19/T790M/C797S) cells; experiment: Inhibition of proliferation of BAF3-EGFR (Del19/T790M/C797S) cells, CCK-8; type: cell-based; details: Ba/F3 EGFR-Del19/T790M/C797S, 72 h, read-out: BAF3(EGFR T790M Del19 C797S) cell inhibitory activity IC50
Experimental: A flask of BAF3-EGFR (del19/T790M/C797S) cells in the logarithmic growth phase and good conditions was taken, and the cells were collected and added to a centrifuge tube. 20 μL of cells were taken and counted, and the required number of cells (mL) was pipetted and centrifuged at 1200 rpm for 3 min. The supernatant was discarded, and an appropriate amount of plating medium (RPMI medium+10% FBS) was added to adjust the cell density to 1.0×10^5 cells/mL. The cells were seeded on a 96-well plate at 100 μL/well using a multi-channel pipette and cultured in a cell incubator at 37° C., 5% CO2 with saturated humidity. After overnight incubation, compounds were loaded using a nanoliter pipettor, 2 duplicate wells were set for each concentration, and cells without compound added were used as negative controls.
Inhibition rate (%)=(mean value of negative control group-mean value of experimental group)/(mean value of negative control group−mean value of blank group)×100%.
A dose-response curve was fitted by four-parameter analysis, with the logarithm of compound concentration serving as abscissa and inhibition rate serving as ordinate, such that IC50 was calculated.

NCI-H1975(L858R T790M) = experiment: Nude mouse subcutaneous xenograft tumor model of NCI-H1975 cells; type: in vivo, nude mice; details: once a day, 14 days
Source text: Evaluation on drug effect on nude mouse subcutaneous xenograft tumor model of NCI-H1975 cells: NCI-H1975 cells were inoculated subcutaneously in the right axilla of SPF-grade female nude mice (source: Jiangsu Huachuang Sino Pharmaceutical Technology Co., Ltd.) at 1×10^6 cells/mouse. When the mean tumor volume reached about 200 mm^3, the animals were grouped.
(§1) The day of grouping was defined as day 0, and intragastric administration was started on day 0 and performed once a day. The tumor volume was measured 2-3 times a week, meanwhile, the mice were weighed and the data were recorded; the general behavior of the mice was observed and recorded every day. After the experiment was completed, the tumors were removed, weighed, and photographed.
(§2) Tumor volume TV (mm^3)=½×(a×b^2),
(§3) Relative tumor volume RTV=TVt/TV0,
(§4) Relative tumor proliferation rate T/C (%)=(TRTV/CRTV)×100%,
(§5) Tumor growth inhibition rate TGI (%)=(1−TW/TW0)×100%;

[7] = In vivo pharmacokinetics in ICR mice; details: mouse, plasma, PO, 10 mg/kg intragastric
In short: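 ICR mice (18–20 g, 9 per group, fasted 12 h) received 10 mg/kg of compound intragastrically. Orbital blood was taken from 0 min to 24 h and EDTA-K2 plasma was prepared. Plasma was precipitated with acetonitrile containing diazepam as internal standard and analysed by LC/MS/MS.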

[8] = system: PC9-EGFR (del19-T790M-C797S); experiment: Nude mouse subcutaneous xenograft tumor model of PC9-EGFR (del19-T790M-C797S) tumor mass; type: in vivo, nude mice
Source text: Evaluation on drug effect on nude mouse subcutaneous xenograft tumor model of PC9-EGFR (del19-T790M-C797S) tumor mass: PC9-EGFR (del19-T790M-C797S) cells were inoculated subcutaneously in the right axilla of SPF-grade female nude mice (source: Laboratory Animal Operation Department, Shanghai Institute for Biomedical and Pharmaceutical Technologies) at 1×10^7 cells/mouse for the F1 generation. The nude mouse tumor tissue of the F1 generation was taken out, and the necrotic tissue was removed. Then the rest of the tumor tissue was cut into tumor masses of about 1.5-2 mm and inoculated subcutaneously in the right axilla of the nude mice. When the mean tumor volume reached about 200 mm^3, the animals were grouped.
as §1, §2, §3, §4, §5

[9] = 15 mpk*4 + 10 mpk*25 (i.g), 29 days

Cc1cc2cc(n1)-c1cnn(C)c1OCCC[C@@H](C1CC1)CN1/C(=N/C2=O)Nc2cc(NC3CCN(C)CC3)ccc21 [Example 10]
Stability in liver microsomes (residual %, T = 60 min) [1]: 94.30%
IC50 [2]: < 5 nM
IC50 [3]: < 50 nM
IC50 [4]: 0.014 nM
IC50 [5]: 0.023 nM

Cc1cc2cc(n1)-c1cnn(C)c1OCCC[C@@H](C1CC1)CN1/C(=N/C2=O)Nc2cc(NCCCN(C)C)ccc21 [Example 44]
Stability in liver microsomes (residual %, T = 60 min) [1]: 80.24%
IC50 [2]: < 5 nM
IC50 [3]: < 50 nM
IC50 [4]: 0.0081 nM
IC50 [6]: < 1 nM
IC50 [5]: 0.012 nM

Cc1cc2cc(n1)-c1cnn(C)c1OCCC[C@@H](C1CC1)CN1/C(=N/C2=O)Nc2ccc(N(C)CCN(C)C)cc21 [Example 45]
Tumor growth inhibition % (tumor weight, d 14) (NCI-H1975(L858R T790M); 10 mpk (i.g)): 76.2% (tumor
Tumor growth inhibition % (volume, d 12) (NCI-H1975(L858R T790M); 10 mpk (i.g)): 76.6%
IC50 [2]: < 5 nM
IC50 [3]: < 50 nM
IC50 [4]: 0.013 nM
IC50 [6]: < 1 nM
IC50 [5]: 0.018 nM

Cc1cc2cc(n1)-c1cnn(C)c1OCCC[C@@H](C1CC1)CN1/C(=N/C2=O)Nc2cc(NC3CCN(C(C)C)CC3)ccc21 [Example 47]
Stability in liver microsomes (residual %, T = 60 min) [1]: 96.11%
IC50 [2]: < 5 nM
IC50 [3]: < 50 nM
IC50 [4]: 0.017 nM
IC50 [6]: < 1 nM
IC50 [5]: 0.027 nM

CCN1CCC(Nc2ccc3c(c2)N/C2=N\C(=O)c4cc(C)nc(c4)-c4cnn(C)c4OCCC[C@@H](C4CC4)CN23)CC1 [Example 48]
Stability in liver microsomes (residual %, T = 60 min) [1]: 95.68%
IC50 [2]: < 5 nM
IC50 [3]: < 50 nM
IC50 [4]: 0.017 nM
IC50 [6]: < 1 nM
IC50 [5]: 0.027 nM

Cc1cc2cc(n1)-c1cnn(C)c1OCCC[C@@H](C1CC1)CN1/C(=N/C2=O)Nc2ccc(N[C@@H](C)CN(C)C)cc21 [Example 66]
AUC(0-inf) [7]: 2200 ng·h/mL
AUC(0-t) ([7]; read-out: AUC(0-t)): 2040 ng·h/mL
Cmax ([7]; read-out: Cmax): 143 ng/mL
MRT last ([7]; read-out: MRT(0-t)): 8.26 h
Tmax ([7]; read-out: Tmax): 6 h
half-life ([7]; read-out: T½ (converted)): 359 min
Tumor growth inhibition % (tumor weight, d 14) (NCI-H1975(L858R T790M); 5 mpk (i.g)): 73.5% (tumor
Tumor growth inhibition % (volume, d 12) (NCI-H1975(L858R T790M); 5 mpk (i.g)): 71.3%
Tumor growth inhibition % (tumor weight, d 14) (NCI-H1975(L858R T790M); 10 mpk (i.g)): 87.5% (tumor
Tumor growth inhibition % (volume, d 12) (NCI-H1975(L858R T790M); 10 mpk (i.g)): 86.2%
IC50 [2]: < 5 nM
Tumor growth inhibition % (tumor weight, d 29) [8, 9]: 95.8% (tumor weight, d 29)
Tumor growth inhibition % (volume, d 27) [8, 9]: 94.3% (volume, d 27)
Tumor growth inhibition % (tumor weight, d 29) ([8]; 30 mpk*4 (i.g), 4 days): 56.5%
Tumor growth inhibition % (volume, d 27) ([8]; 30 mpk*4 (i.g), 4 days): 60.0% (volume, d 27)
IC50 [3]: < 50 nM
IC50 [6]: < 1 nM

Cc1cc2cc(n1)-c1cnn(C)c1OCCC[C@@H](C1CC1)CN1/C(=N/C2=O)Nc2cc(NCCN3CCCC3)ccc21 [Example 72]
Stability in liver microsomes (residual %, T = 60 min) [1]: 64.73%
IC50 [2]: < 5 nM
IC50 [4]: 0.011 nM
IC50 [6]: < 1 nM
IC50 [5]: 0.013 nM

Cc1cc2cc(n1)-c1cnn(C)c1OCCC[C@@H](C1CC1)CN1/C(=N/C2=O)Nc2ccc(N[C@H]3CC[C@@H](N(C)C)CC3)cc21 [Example 99]
Stability in liver microsomes (residual %, T = 60 min) [1]: 84.54%
IC50 [2]: < 5 nM
IC50 [3]: < 50 nM
IC50 [4]: 0.091 nM

Cc1cc2cc(n1)-c1cnn(C)c1OCCC[C@@H](C1CC1)CN1/C(=N/C2=O)Nc2ccc(N[C@H]3CC[C@H](N(C)C)CC3)cc21 [Example 100]
Stability in liver microsomes (residual %, T = 60 min) [1]: 82.55%
IC50 [2]: < 5 nM
IC50 [3]: < 50 nM
IC50 [4]: 0.092 nM

Cc1cc2cc(n1)-c1cnn(C)c1OCCC[C@@H](C1CC1)CN1/C(=N/C2=O)Nc2cc(N[C@H]3C[C@H](N(C)C)C3)ccc21 [Example 126]
Stability in liver microsomes (residual %, T = 60 min) [1]: 83.66%
IC50 [2]: < 5 nM
IC50 [3]: < 50 nM
IC50 [5]: 0.073 nM

Cc1cc2cc(n1)-c1cnn(C)c1OCCC[C@@H](C1CC1)CN1/C(=N/C2=O)Nc2cc(N[C@H]3CC[C@@H](N(C)C)C3)ccc21 [Example 131]
Stability in liver microsomes (residual %, T = 60 min) [1]: 95.64%
IC50 [2]: < 5 nM
IC50 [3]: < 50 nM
IC50 [5]: 0.08 nM

Cc1cc2cc(n1)-c1cnn(C)c1OCCC[C@@H](C1CC1)CN1/C(=N/C2=O)Nc2ccc(N[C@H]3CC[C@@H](N(C)C)C3)cc21 [Example 132]
Stability in liver microsomes (residual %, T = 60 min) [1]: 63.76%
IC50 [2]: < 5 nM
IC50 [3]: < 50 nM
IC50 [5]: 0.066 nM

Cc1cc2cc(n1)-c1cnn(C)c1OCCC[C@@H](C1CC1)CN1/C(=N/C2=O)Nc2cc(N[C@H]3CC[C@H](N(C)C)C3)ccc21 [Example 135]
Stability in liver microsomes (residual %, T = 60 min) [1]: 97.30%.
IC50 [2]: < 5 nM
IC50 [3]: < 50 nM
IC50 [5]: 0.062 nM
